Where two headings read alike, the source gives them in different places. Where a SMILES comes first, the peptide text is derived from it. Where no end group is shown, it is not given here. [ ]: non-standard residue; d: D form. The star is where a group is joined. Undecanoyl = CCCCCCCCCCC(=O)*; Lauroyl = CCCCCCCCCCCC(=O)*; Octanoyl = CCCCCCCC(=O)*
Legend:
[1] = Systemic toxicity, tail vein injection; type: in vivo; conditions: mouse, IV, 20 mg/kg
Trychophyton rubrum = assay: MIC100 against dermatophyte Trychophyton rubrum; type: cell-based; conditions: T. rubrum; 125 ppm, day ten
Method: (§1) In order to compare the activity of various antimicrobial peptides, including hexapeptide SEQ ID NO:1 (P0666), MIC were determined against the dermatophytes Trychophyton rubrum and Trychophyton mentagrophytes. The concentration of samples investigated were: 2000, 1000, 500, 250 and 125 μg/ml, respectively. The medium used was modified Sabouraud's media without agar. For a 100 mL of modified Sabouraud medium: 3 g of Sabouraud's dextrose broth (Difco) was mixed into 100 mL of deionized water. The pH was adjusted to 7.0 with 0.1 N NaOH. The solution was autoclaved for thirty minutes. 940 μL of medium was poured into sterile 20 mL test tubes with plastic caps and was allowed to cool.
(§2) 50 μL of […] was added to each 20 mL test tube to make the required concentration. A control tube was composed of 50 μL of saline without sample. For the MIC experiments,
(§3) 10 μL of organism suspended in saline was added to the each 20 mL test tube and vortexed slightly. Each of the test tubes was covered in parafilm and maintained on a shaker at 27° C. at a speed of approximately 100 rpm.
(§4) The growth/inhibition of the organism was observed on a daily basis. […] The Minimum Inhibition Concentration (MIC100) for compounds F1 to F10 against fungus Trychophyton rubrum and Trychophyton mentagrophytes at 10 days.

[2] = tested on: Trychophyton mentagrophytes; assay: MIC100 against dermatophyte Trychophyton mentagrophytes; type: cell-based; conditions: T. mentagrophytes; 125 ppm, day ten
Method: as §1, §2, §3, §4

Pseudomonas aeruginosa = type: cell-based; set-up: MIC, lipid length SAR: unit not given here; conditions: P.aeruginosa
Summary of the method: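 Modified NCCLS broth microdilution; hexapeptide in 0.01% acetic acid with 0.2% BSA, added to inocula of 2×10^5–7×10^5 CFU/ml (bacteria) or 2×10^3–7×10^3 CFU/ml (Candida) in polypropylene plates. MIC is lowest concentration preventing visible turbidity after 16–20 h (bacteria) or 46–50 h (Candida) at 35° C.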

[3] = tested on: Salmonella typhimurium 14028S; assay: MIC, broth microdilution, S. typhimurium; type: cell-based; set-up: unit not given here; conditions: S.typhimurium
Method: (§5) MICs (minimal inhibitory concentrations) were determined for the hexapeptides of interest using a slightly modified version of the NCCLS (National Committee for Clinical Laboratory Standards) broth microdilution method as described previously (Steinberg et al., AAC 41: 1738, 1997). Briefly, antimicrobial agents were prepared as 10× concentrates in the most appropriate solvent. For the hexapeptide, 0.01% acetic acid containing 0.2% bovine serum albumin as a carrier protein was used. Inocula were prepared by resuspending colonies from a BAP (please spell out this term) in medium and adjusting the suspension to match that of a 0.5 McFarland standard. The suspension was diluted into fresh medium (as recommended by NCCLS for the organism) to give 2×10^5 to 7×10^5 CFU/ml for bacteria or 2×10^3 to 7×10^3 CFU/ml for Candida. After dispensing 100 μl aliquots of the microbial suspension into each well of a 96-well polypropylene microtiter plate, 11 μl of test compound was added. The MIC was defined as the lowest concentration of drug which prevented visible turbidity after 16 to 20 hours (bacteria) or 46 to 50 hours (Candida) at 35° C.

S. aureus = assay: Kill curve in 80% serum, S. aureus; type: cell-based
From the text: It should be noted that in addition to MIC data, the lipo-hexapeptides can also be distinguished by their ability to kill bacteria in the presence of biological constituents such as serum. […] This activity, an indicator of therapeutic potential, is not obvious from the MIC data alone.

[4] = tested on: azole resistant strains of C. albicans; type: cell-based; set-up: MIC-SEQ ID NO: 55 + azole, peptide part / MIC-SEQ ID NO: 55 + azole, azole part: unit not given beside the values; conditions: in combination with clotrimazole
Method: (§6) The fractional inhibitory concentration (FIC) index was used to determine the synergy between antimicrobial agents. Peptide MICs against test microorganisms were determined three times on separate occasions. […]
All strains are azole resistant clinical isolates from Prof. Ted White (Seattle Biotechnology Research Institute, Seattle)

P. aeruginosa = type: cell-based; conditions: combined with polymyxin B
Method: as §6

S. epidermidis ATCC12228 = assay: MIC, broth microdilution, S. epidermidis; type: cell-based; set-up: unit not given beside the values; conditions: #86: S. epidermidis ATCC12228
Method: as §5

P. acnes = assay: Activity against extended panel of P. acnes; type: cell-based; set-up: unit not given here
From the text: A very promising application for short bioactive peptides is for dermatological indications such as acne.

MRSA = assay: Kill curve in 10% sheep serum-phosphate buffer against MRSA; type: cell-based, S. aureus; set-up: MRSA count in kill curve: unit not given here
S. aureus MRSA = assay: Kill kinetics in lipid (liposome) environment with or without serum; type: cell-based; conditions: peptide 0.5 mg/ml; liposomes, presence or absence of serum
From the text: Referring to FIG. 8, not only does lipidation improve the activity of hexapeptides in serum it improves activity in a lipid environment which is a mimic of the human acne lesion environment. The human sebaceous gland secretion, also called sebum, contains squalene, cholesterol, cholesterol esters, wax esters, and triglycerides in which a large […] of P. acnes appears to take advantage of this environment and hydrolyzes certain sebaceous lipids. The pre-pubertal and pubertal increase in sebum secretion is almost certainly involved in the pathogenesis of adolescent acne. The activity of SEQ ID NO: 55 was studied in this environment compared to P64(SEQ ID NO:90), a traditional cationic antimicrobial peptide. Due to the fact that most lipids are water insoluble, peptide-liposomes composed of phosphatidylcholine, phosphatidylglycerol and cholesterol in the molar ratio of 7:2:1 in saline were used and kill kinetics of the peptides were assessed in the presence or absence of serum.

## KYKKALKKLAKLL-NH2 [SEQ ID NO:92]
[1]; solvent ringers
  Result (systemic toxicity): 3/3 dead

## KFKWPW-NH2 [SEQ ID NO:1]
Trychophyton rubrum
  growth of organism: only a slight growth
[2]
  growth of organism: only a slight growth
[1]; solvent water
  Result (systemic toxicity): did not elicit systemic toxicity

## Und-KFKWPW-NH2 (Undecanoyl-KFKWPW-NH2; SMILES CCCCCCCCCCC(=O)N[C@@H](CCCCN)C(=O)N[C@@H](Cc1ccccc1)C(=O)N[C@@H](CCCCN)C(=O)N[C@@H](Cc1c[nH]c2ccccc12)C(=O)N1CCC[C@H]1C(=O)N[C@@H](Cc1c[nH]c2ccccc12)C(N)=O) [SEQ ID NO: 79]
Pseudomonas aeruginosa
  MIC, lipid length SAR: 8-16
[3]
  MIC, lipid length SAR: 8-16
S. aureus
  killing of S. aureus in 80% serum (in words): perform very well

## Lau-kfkwpw-NH2 (Lauroyl-[dK][dF][dK][dW][dP][dW]-NH2; SMILES CCCCCCCCCCCC(=O)N[C@H](CCCCN)C(=O)N[C@H](Cc1ccccc1)C(=O)N[C@H](CCCCN)C(=O)N[C@H](Cc1c[nH]c2ccccc12)C(=O)N1CCC[C@@H]1C(=O)N[C@H](Cc1c[nH]c2ccccc12)C(N)=O) [SEQ ID NO: 83]
S. aureus
  killing of S. aureus in 80% serum (in words): perform very well

## CCCCCCCC(=O)N[C@@H](CCCCN)C(=O)N[C@@H](Cc1ccccc1)C(=O)N[C@@H](CCCCN)C(=O)N[C@@H](Cc1c[nH]c2ccccc12)C(=O)N1CCC[C@H]1C(=O)N[C@@H](Cc1c[nH]c2ccccc12)C(N)=O [SEQ ID NO: 55, OCT-KFKWPW-NH2] (Octanoyl-KFKWPW-NH2)
[4]; C. albicans #185
  MIC-SEQ ID NO: 55 + azole, peptide part: 16
[4]; C. albicans #186
  MIC-SEQ ID NO: 55 + azole, peptide part: 2
[4]; C. albicans #187
  MIC-SEQ ID NO: 55 + azole, peptide part: 4
[4]; C. albicans #192
  MIC-SEQ ID NO: 55 + azole, peptide part: 4
[4]; C. albicans #196
  MIC-SEQ ID NO: 55 + azole, peptide part: 4
[4]; C. albicans #199
  MIC-SEQ ID NO: 55 + azole, peptide part: 4
Pseudomonas aeruginosa
  MIC, lipid length SAR: 32
P. aeruginosa; P. aeruginosa 100609
  MIC-NO: 55 combined: 2 µg/mL
P. aeruginosa; P. aeruginosa H187
  MIC-NO: 55 combined: 8 µg/mL
P. aeruginosa; P. aeruginosa H401
  MIC-NO: 55 combined: 2 µg/mL
P. aeruginosa; P. aeruginosa M917
  MIC-NO: 55 combined: 16 µg/mL
S. epidermidis ATCC12228
  MIC: 8
[3]
  MIC, lipid length SAR: 32
P. acnes; ATCC 6921
  Activity (MIC) against P. acnes: 4
P. acnes; ATCC 6922
  Activity (MIC) against P. acnes: 8
P. acnes; ATCC 6923
  Activity (MIC) against P. acnes: 8
P. acnes; ATCC 11828
  Activity (MIC) against P. acnes: 8
P. acnes; ATCC 12930
  Activity (MIC) against P. acnes: 8
P. acnes; ATCC 25746
  Activity (MIC) against P. acnes: 1
P. acnes; ATCC 29399
  Activity (MIC) against P. acnes: 16
P. acnes; ATCC 33179
  Activity (MIC) against P. acnes: 16
P. acnes; ATCC 49929
  Activity (MIC) against P. acnes: 0.125
P. acnes; ATCC 51277
  Activity (MIC) against P. acnes: 4
MRSA; buffer, 1 mg/ml, 30 min
  MRSA count in kill curve: 100
MRSA; buffer, 1 mg/ml, 1 hour
  MRSA count in kill curve: 100
MRSA; buffer, 1 mg/ml, 2 hours
  MRSA count in kill curve: 10
MRSA; buffer, 1 mg/ml, 3 hours
  MRSA count in kill curve: 10
MRSA; buffer, 1 mg/ml, 4 hours
  MRSA count in kill curve: 10
MRSA; buffer, 1 mg/ml, 5 hours
  MRSA count in kill curve: 10
MRSA; serum, 0.5 mg/ml, 30 min
  MRSA count in kill curve: 10
MRSA; serum, 0.5 mg/ml, 1 hour
  MRSA count in kill curve: 10
MRSA; serum, 0.5 mg/ml, 2 hours
  MRSA count in kill curve: 10
MRSA; serum, 0.5 mg/ml, 3 hours
  MRSA count in kill curve: 10
MRSA; serum, 0.5 mg/ml, 4 hours
  MRSA count in kill curve: 10
MRSA; serum, 0.5 mg/ml, 5 hours
  MRSA count in kill curve: 10
MRSA; serum, 1 mg/ml, 30 min
  MRSA count in kill curve: 3900
MRSA; serum, 1 mg/ml, 1 hour
  MRSA count in kill curve: 1100
MRSA; serum, 1 mg/ml, 2 hours
  MRSA count in kill curve: 100
MRSA; serum, 1 mg/ml, 3 hours
  MRSA count in kill curve: 30
MRSA; serum, 1 mg/ml, 4 hours
  MRSA count in kill curve: 20
MRSA; serum, 1 mg/ml, 5 hours
  MRSA count in kill curve: 60
MRSA; serum, 2 mg/ml, 30 min
  MRSA count in kill curve: 1000000
MRSA; serum, 2 mg/ml, 1 hour
  MRSA count in kill curve: 1000000
MRSA; serum, 2 mg/ml, 2 hours
  MRSA count in kill curve: 1000000
MRSA; serum, 2 mg/ml, 3 hours
  MRSA count in kill curve: 1000000
MRSA; serum, 2 mg/ml, 4 hours
  MRSA count in kill curve: 1000000
MRSA; serum, 2 mg/ml, 5 hours
  MRSA count in kill curve: 1000000
S. aureus MRSA
  kill kinetics in lipid environment (in words): shown to be effective
